Experimental data reported in patent publication US20090170869A1, “PIPERAZINE DERIVATIVE HAVING AFFINITY FOR THE HISTAMINE H3 RECEPTOR” (priority 2007, published 2009).
Structures can show the parent of a compound that is named as a salt.

Key:
rodent models = details: five choice task, object recognition, elevated plus maze, acquisition of novel task, passive avoidance; literature reports; cited from earlier work
[1] = Preliminary HCl-salt-formation and crystallisation experiments (crystal form stability); assay type: physicochemical; details: hydrochloride salt crystal forms; without being bound by theory
Excerpt: Crystalline Form 1 (or a predominance of crystalline Form 1) is often formed initially depending on the conditions, but, depending on the conditions (such as the type of solvent and the solubility of crystalline Form 1 in it, and/or the temperature and/or temperature time course, and/or the contact time of the crystalline Form 1 with the solvent), the crystalline Form 1 can then often convert to crystalline Form 2 to a greater or lesser extent when in contact with a suitable solvent i.e. a solvent suitable for converting crystalline Form 1 to crystalline Form 2.

histamine H3 receptor = biological target: T1, histamine H3 receptor (Rattus norvegicus, UniProt Q9QYN8); details: following oral administration to the rat; Medhurst et al. 2007; cited from earlier work
T1 construct: host or cells: rat cortex
T1 sequence (Q9QYN8 whole entry): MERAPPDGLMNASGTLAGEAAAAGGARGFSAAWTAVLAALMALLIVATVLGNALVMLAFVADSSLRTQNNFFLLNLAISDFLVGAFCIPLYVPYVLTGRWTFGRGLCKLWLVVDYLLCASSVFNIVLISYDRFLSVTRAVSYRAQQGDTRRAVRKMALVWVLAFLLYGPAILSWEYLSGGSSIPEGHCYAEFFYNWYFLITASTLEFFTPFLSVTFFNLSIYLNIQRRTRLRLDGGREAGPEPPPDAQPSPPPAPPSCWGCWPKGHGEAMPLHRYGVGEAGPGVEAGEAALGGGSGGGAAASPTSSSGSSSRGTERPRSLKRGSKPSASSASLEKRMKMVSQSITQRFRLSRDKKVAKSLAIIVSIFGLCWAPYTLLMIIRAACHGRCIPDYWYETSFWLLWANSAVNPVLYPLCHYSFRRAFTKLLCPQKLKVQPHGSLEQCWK

rats = details: at certain oral doses; passive avoidance, water maze, object recognition, attentional set shift; Medhurst et al. 2007; cited from earlier work
[2] = biological target: T2, brain histamine H3 receptor (Rattus norvegicus, UniProt Q9QYN8); assay: Rat ex vivo binding studies - rat brain histamine H3 receptor occupancy ([3H]-R-α-methylhistamine); assay type: in vivo; details: for inhibition of [3H]-R-α-methylhistamine specific binding to the H3 receptor (surrogate for rat brain H3 receptor occupancy): 10 mg/kg oral; for specific binding of [3H]-R-α-methylhistamine to the H3 receptor: rats n=3, 10 mg/kg oral, mean ± SEM
T2 construct: from tissue; host or cells: cerebral cortex homogenate of adult male Lister hooded rats
T2 sequence (Q9QYN8 whole entry): as above
Experimental: Ex vivo binding studies were carried out to determine brain histamine H3 receptor occupancy in rats at certain time points after oral administration of a test compound.
Adult male rats (Lister hooded 200-250 g, Charles River, UK) received vehicle (1% w/v aqueous methylcellulose) (control) or the test compound (10 mg/kg) by oral gavage (n=3 per group) and were sacrificed 1 or 4 hours following oral dosing. The 1 hour and 4 hour studies were not necessarily done on the same day. Terminal blood samples were collected and brains rapidly removed. Cerebral cortex tissue was dissected from half of each brain for ex vivo binding; the other half brain can be used for pharmacokinetic analysis of brain concentrations of each compound. All dissected tissue samples were snap-frozen in liquid nitrogen, and stored at −80° C. until use. The tissues were rapidly thawed and homogenised in approximately 30 volumes of ice cold assay reaction buffer. The assay reaction buffer contained 50 mM Tris-HCl (made up using Trizma pre-set crystals pH 7.7 @25° C., Sigma cat. No. T8068-250G) and 5 mM EDTA, with a final buffer pH of 7.2 to 7.8, usually about 7.4. The crude homogenate (600-800 μg/well) was then used to measure H3 receptor binding using [^3H]-R-α-methylhistamine as radioligand. Assays measuring total binding of [^3H]-R-α-methylhistamine consisted of 50 μl assay reaction buffer, 400 μl of homogenate (corresponding to 600-800 μg/well) and 50 μl of 2 nM R(−)α-Methyl[imidazole-2,5(n)-3H]histamine dihydrochloride ([^3H]-R-α-methylhistamine; specific activity, 24 Ci mmol^−1, Amersham Biosciences, catalogue no. TRK1017). Incubations with [^3H]-R-α-methylhistamine were for 45 min at 30° C. Non-specific binding of [^3H]-R-α-methylhistamine was determined in parallel using the same assay except that 50 μl of 10 μM imetit (an H3 receptor agonist, e.g. available from Tocris) was used instead of the 50 μl of assay reaction buffer. The experiments were terminated by rapid filtration through Whatman GF/B filters (pre-soaked in 0.3% v/v polyethyleneimine (PEI)), and then the filters were washed through with 4×5 ml of ice cold harvesting buffer. The harvesting buffer contained 50 mM Tris-HCl (from Trizma pre-set crystals pH 7.7 @ 25° C.) and 5 mM MgCl2, with a final buffer pH of 7.2 to 7.8, usually about 7.4. Filters were dried and added to vials each containing 4 ml Ultima Gold MV scintillation fluid (Hewlett Packard) and radioactivity determined by liquid scintillation spectrometry using a Packard Tri-Carb 2500TR liquid scintillation counter.
Specific binding of [^3H]-R-α-methylhistamine to the H3 receptor was determined by the subtraction of the value obtained for non-specific binding from the value obtained for total binding.
Protein concentrations were determined using the Bradford assay method (Bio-Rad
Protein Assay Dye Reagent Concentrate, catalogue no. 500-0006; from Bio-Rad Laboratories GmbH, Heidemannstrasse 164, 80939 Muenchen, Germany; or from Bio-Rad, York, UK) with bovine serum albumin as a standard. Specific radioactivity in the samples was corrected for protein (i.e. per microgram of protein).
The specific binding of [^3H]-R-α-methylhistamine to the H3 receptor is expressed as a mean (n=3 rats)±SEM (standard error of the mean), as a percentage of vehicle-treated control animals. Data is also expressed as inhibition of [^3H]-R-α-methylhistamine specific binding to the H3 receptor, as a surrogate measure for H3 receptor occupancy by the test compound, calculated as 100% minus the % mean specific binding of [^3H]-R-α-methylhistamine to the H3 receptor.

[3] = Plasma clearance in the pig-PET study; assay type: in vivo; details: Yorkshire-Landrace, iv, 50 ug/kg, 50 micrograms/kg i.v.
H3 receptor = H3 receptor (Sus scrofa, UniProt A0A287B9V8); assay: Pig-PET study with [11C]GSK189254: pig brain H3 receptor occupancy over time and kon-koff limited model; details: 50 micrograms/kg i.v.; for Measured H3 receptor occupancy @ 10 min: 10 minutes post administration; for Measured H3 receptor occupancy @ 2.5 h: 2.5 hours post administration; for Measured H3 receptor occupancy @ 6 h: 6 hours post administration; for Kd: Kd (koff/kon); for koff: iv; for koff / kon: Salt B
H3 receptor, sequence (A0A287B9V8 1-448): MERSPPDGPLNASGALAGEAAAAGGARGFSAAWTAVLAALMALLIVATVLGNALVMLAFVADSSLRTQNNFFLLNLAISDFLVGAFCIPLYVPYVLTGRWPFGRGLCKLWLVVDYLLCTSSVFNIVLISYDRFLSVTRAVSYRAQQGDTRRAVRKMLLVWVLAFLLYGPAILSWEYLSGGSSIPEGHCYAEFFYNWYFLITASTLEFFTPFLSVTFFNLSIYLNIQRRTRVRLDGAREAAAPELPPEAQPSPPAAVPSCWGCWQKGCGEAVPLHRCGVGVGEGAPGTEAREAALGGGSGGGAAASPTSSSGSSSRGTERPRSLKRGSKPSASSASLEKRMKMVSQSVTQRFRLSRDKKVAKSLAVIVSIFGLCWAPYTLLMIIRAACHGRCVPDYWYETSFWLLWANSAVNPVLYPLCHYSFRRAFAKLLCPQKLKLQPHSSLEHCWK

[4] = mean ± standard deviation, n=3 pigs
[5] = average model (from average plasma data and average occupancy)

CC(C)(C)CCC#C[C@@H]1C[C@H]1c1c[nH]cn1 [GT-2331]
cognitive effect in rodent models (rodent models): cognitive enhancing properties

CC(C)N1CCN(C(=O)c2ccc(OC3CCOCC3)cc2)CC1 [Example 3]
thermodynamic stability relative to crystalline Form 1 [1]: more thermodynamically stable than crystalline Form 1

O=C(c1ccc(OCCCc2cnc[nH]2)cc1)C1CC1 [ciproxifan]
cognitive effect in rodent models (rodent models): cognitive enhancing properties

S=C(NC1CCCCC1)N1CCC(c2cnc[nH]2)CC1 [thioperamide]
cognitive effect in rodent models (rodent models): cognitive enhancing properties

CNC(=O)c1ccc(Oc2ccc3c(c2)CCN(C2CCC2)CC3)nc1 [GSK189254]
[3H]R-α-methylhistamine ex vivo binding in the rat cortex (histamine H3 receptor): inhibited | performance of rats in cognition paradigms (rats): improved performance

CC(C)N1CCCN(C(=O)c2ccc(OC3CCOCC3)cc2)CC1 [Salt B, reference compound]
inhibition of [3H]-R-α-methylhistamine specific binding to the H3 receptor (surrogate for rat brain H3 receptor occupancy) ([2]; 1 hour after dosing): about 60% | inhibition of [3H]-R-α-methylhistamine specific binding to the H3 receptor (surrogate for rat brain H3 receptor occupancy) ([2]; 4 hours after dosing): about 12% | specific binding of [3H]-R-α-methylhistamine to the H3 receptor ([2]; sacrificed 1 hour after dosing): 40%+4% | specific binding of [3H]-R-α-methylhistamine to the H3 receptor ([2]; sacrificed 4 hours after dosing): 88%+6% | clearance ([3]; average model (from average plasma data)): 48.3 mL/min | clearance ([3]; mean of pigs 1-3): 46.7 mL/min | clearance ([3]; pig 1): 60 mL/min | clearance ([3]; pig 2): 30 mL/min | clearance ([3]; pig 3): 46.7 mL/min | Measured H3 receptor occupancy @ 10 min (H3 receptor; [4]): 63% ± 10% | Measured H3 receptor occupancy @ 10 min (H3 receptor; pig 1): 51% | Measured H3 receptor occupancy @ 10 min (H3 receptor; pig 2): 69% | Measured H3 receptor occupancy @ 10 min (H3 receptor; pig 3): 68% | Measured H3 receptor occupancy @ 2.5 h (H3 receptor; [4]): 37% ± 16% | Measured H3 receptor occupancy @ 2.5 h (H3 receptor; pig 1): 19% | Measured H3 receptor occupancy @ 2.5 h (H3 receptor; pig 2): 49% | Measured H3 receptor occupancy @ 2.5 h (H3 receptor; pig 3): 43% | Measured H3 receptor occupancy @ 6 h (H3 receptor; [4]): 33% ± 4% | Measured H3 receptor occupancy @ 6 h (H3 receptor; pig 1): 30% | Measured H3 receptor occupancy @ 6 h (H3 receptor; pig 2): 32% | Measured H3 receptor occupancy @ 6 h (H3 receptor; pig 3): 38% | Kd (H3 receptor; [5]): 5.2 nM | Kd (H3 receptor; mean of pigs 1-3): 4.76 nM | Kd (H3 receptor; pig 1, in vivo PK/RO model): 5.6 nM | Kd (H3 receptor; pig 2, in vivo PK/RO model): 5.05 nM | Kd (H3 receptor; pig 3, in vivo PK/RO model): 3.61 nM | koff (H3 receptor; PIG1, pig, pig 1, estimated model parameter): 5.5e-05 s⁻¹ | kon (H3 receptor; [5]): 0.0025 min⁻¹ | kon (H3 receptor; mean of pigs 1-3): 0.0024 min⁻¹ | kon (H3 receptor; pig 1, estimated model parameter): 0.0017 min⁻¹ | kon (H3 receptor; pig 2, estimated model parameter): 0.0024 min⁻¹ | kon (H3 receptor; pig 3, estimated model parameter): 0.0031 min⁻¹ | koff (H3 receptor; pig, average model (from average plasma data and average occupancy)): 7.5e-05 s⁻¹ | koff (H3 receptor; pig, mean of pigs 1-3): 6.33e-05 s⁻¹ | koff (H3 receptor; pig, pig 2, estimated model parameter): 7e-05 s⁻¹ | koff (H3 receptor; pig, pig 3, estimated model parameter): 6.5e-05 s⁻¹

NC(=NCc1ccc(Cl)cc1)SCCCc1cnc[nH]1 [clobenpropit]
cognitive effect in rodent models (rodent models): cognitive enhancing properties
